What all share (assay type): ADME, Microsome
Data set [1] can be described thus: Metabolic stability in rat liver microsomes assessed as parent compound remaining at 0.1 uM in presence of NADPH by LC-MS/MS analysis. The settings on record: read-out: Stabilty.
Data set [2] in a line: Metabolic stability in mouse liver microsomes assessed as parent compound remaining at 0.1 uM in presence of NADPH by LC-MS/MS analysis. Conditions: read-out: Stabilty.
Data set [3] can be described thus: Metabolic stability in human liver microsomes assessed as parent compound remaining at 0.1 uM in presence of NADPH by LC-MS/MS analysis.

As to `CCOC(=O)c1ccc(CCN2CCC(Nc3nc4ccccc4n3Cc3ccc(C#N)cc3)CC2)cc1`, the remaining at 0.1 µM in data set [1] and in data set [2] was below 45% throughout. The Stabilty entry in data set [3] is “Unstable”.

In the case of `O=C(c1ccc(CCN2CCC(Nc3nc4ccccc4n3Cc3ccc(F)cc3)CC2)cc1)N1CCNCC1`, the remaining at 0.1 µM in data set [1] and in data set [2] was below 45% throughout. In data set [3], the Stabilty result is given as “Unstable”.

In the case of `N#Cc1ccc(CCN2CCC(Nc3nc4ccccc4n3Cc3ccc(C(F)(F)F)nc3)CC2)cc1`, the remaining at 0.1 µM in data set [1] and in data set [2] was below 45% throughout. Also, the Stabilty result in data set [3] is given as “Unstable”.

As for `N#Cc1ccc(Cn2c(NC3CCN(CCc4ccc(C(F)(F)F)cc4)CC3)nc3ccccc32)cc1`, the remaining at 0.1 µM in data set [1] and in data set [2] was below 45% throughout. Besides, the Stabilty result in data set [3] is reported as “Unstable”.

`N#Cc1ccc(CCN2CCC(Nc3nc4ccccc4n3Cc3ccc(C#N)c(F)c3)CC2)cc1`: the remaining at 0.1 µM in data set [1] and in data set [2] was below 45% in each case. In addition, in data set [3], the Stabilty entry is reported as “Unstable”.

The record behind these values is ChEMBL document CHEMBL4837244 (ACS Med Chem Lett, 2021).
